{"source": "ChEMBL document CHEMBL1133343", "about": "“Synthesis and antifungal activity of a ferrocene-fluconazole analogue” (2000)", "format_in_all_cases": "functional", "key": {"Candida parapsilosis": {"system": "Candida parapsilosis", "assay": "Compound was tested for antifungal activity against growth of two strains Candida parapsilosis", "conditions": "Lodderomyces parapsilosis"}, "Candida albicans [1]": {"system": "Candida albicans", "assay": "Compound was tested for antifungal activity against growth of three strains of Candida albicans"}, "Candida albicans [2]": {"system": "Candida albicans", "assay": "Compound was tested for antifungal activity against growth of two strains Candida glabrata"}, "Pichia kudriavzevii": {"system": "Pichia kudriavzevii", "assay": "Compound was tested for antifungal activity against growth of three strains Candida krusei"}}, "data": [{"smiles": "OC(Cn1cncn1)(Cn1cncn1)c1ccc(F)cc1F", "note": "[FLUCONAZOLE]", "values": [{"measurement": "MIC80", "setting": "Candida parapsilosis", "value": "< 12", "unit": "µg/mL"}, {"measurement": "MIC80", "setting": "Candida albicans [1]", "value": "< 1.5", "unit": "µg/mL"}, {"measurement": "MIC80", "setting": "Candida albicans [2]", "value": "> 48", "unit": "µg/mL"}, {"measurement": "MIC80", "setting": "Pichia kudriavzevii", "value": "> 48", "unit": "µg/mL"}]}]}
